Tests used:
[1] = biological target: T1, PDGFRα (Homo sapiens, UniProt P16234); test: Caliper biochemical assay, PDGFRα; details: Table 6
T1 construct: purchased Millipore 14-467 (lot 26321_ACTI)
Method: (§1) Enzyme, substrate, and cofactors (ATP and Mn^2+) are combined in a well of a microtiter plate and incubated for 3 hours at 25° C. At the end of the incubation, the reaction is quenched by the addition of an EDTA-containing buffer. Substrate and product are separated electrophoretically using the microfluidic-based LabChip 3000 Drug Discovery System from Caliper Life Sciences* and quantitated by fluorescence intensity.
(§2) The substrate used in the CSF-1R and PDGFRα assay is FAM-[…]-CONH2 (FAM is carboxyfluorescein). Peptide should be >95% purity. The substrate for the KIT assay is FAM-[…]-NH2.
(§3) • 1. To a well of a 384-well plate add 5 μL of 2× enzyme buffer (or control) • 2. Add 100 nL of 100× compound. • 3. Add 5 μL of 2× substrate buffer. • 4. Incubate plate at 25° C. for 3 hours. • 5. Add 10 uL of […]. • 6. Read plate LabChip 3000 Drug Discovery System
(§4) • 3 hours at 25° C. where 100% Inhibitor: No enzyme.

[2] = biological target: T2, CSF-1R (Homo sapiens, UniProt P07333); test: Caliper biochemical assay, CSF-1R; details: Table 6
T2 construct: purchased Invitrogen PV3249 (lot 662393N)
T2 sequence (P07333 20-972): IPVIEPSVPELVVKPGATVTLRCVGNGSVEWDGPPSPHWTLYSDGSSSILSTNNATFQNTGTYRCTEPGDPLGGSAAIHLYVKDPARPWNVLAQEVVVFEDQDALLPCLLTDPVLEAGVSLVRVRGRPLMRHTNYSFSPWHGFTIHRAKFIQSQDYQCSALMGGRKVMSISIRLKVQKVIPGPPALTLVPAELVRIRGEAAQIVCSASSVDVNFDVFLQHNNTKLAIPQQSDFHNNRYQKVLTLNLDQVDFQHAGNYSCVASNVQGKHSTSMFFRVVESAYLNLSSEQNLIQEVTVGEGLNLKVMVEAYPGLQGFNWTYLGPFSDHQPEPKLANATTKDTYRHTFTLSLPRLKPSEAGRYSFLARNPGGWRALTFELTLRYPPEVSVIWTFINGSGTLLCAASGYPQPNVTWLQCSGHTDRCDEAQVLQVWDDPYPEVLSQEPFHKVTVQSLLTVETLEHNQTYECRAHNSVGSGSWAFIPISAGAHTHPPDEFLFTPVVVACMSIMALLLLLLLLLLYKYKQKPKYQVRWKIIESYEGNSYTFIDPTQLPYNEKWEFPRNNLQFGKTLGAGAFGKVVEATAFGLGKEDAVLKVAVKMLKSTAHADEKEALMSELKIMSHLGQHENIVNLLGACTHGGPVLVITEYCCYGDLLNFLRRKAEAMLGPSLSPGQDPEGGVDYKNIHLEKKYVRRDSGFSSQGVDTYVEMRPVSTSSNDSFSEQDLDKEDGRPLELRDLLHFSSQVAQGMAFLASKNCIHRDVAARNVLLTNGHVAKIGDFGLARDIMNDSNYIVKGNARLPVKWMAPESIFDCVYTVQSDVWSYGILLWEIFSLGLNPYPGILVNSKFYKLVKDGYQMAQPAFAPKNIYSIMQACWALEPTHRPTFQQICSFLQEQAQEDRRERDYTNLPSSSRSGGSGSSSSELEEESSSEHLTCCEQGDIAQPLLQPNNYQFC
Method: as §1, §2, §3, §4

[3] = biological target: T3, wtKIT (Homo sapiens, UniProt P10721); test: Caliper biochemical assay, wtKIT; details: Table 6, read-out: KIT Biochemical IC50 avg
T3 construct: 1888289AM in the reaction mixtures
T3 sequence (P10721 26-976): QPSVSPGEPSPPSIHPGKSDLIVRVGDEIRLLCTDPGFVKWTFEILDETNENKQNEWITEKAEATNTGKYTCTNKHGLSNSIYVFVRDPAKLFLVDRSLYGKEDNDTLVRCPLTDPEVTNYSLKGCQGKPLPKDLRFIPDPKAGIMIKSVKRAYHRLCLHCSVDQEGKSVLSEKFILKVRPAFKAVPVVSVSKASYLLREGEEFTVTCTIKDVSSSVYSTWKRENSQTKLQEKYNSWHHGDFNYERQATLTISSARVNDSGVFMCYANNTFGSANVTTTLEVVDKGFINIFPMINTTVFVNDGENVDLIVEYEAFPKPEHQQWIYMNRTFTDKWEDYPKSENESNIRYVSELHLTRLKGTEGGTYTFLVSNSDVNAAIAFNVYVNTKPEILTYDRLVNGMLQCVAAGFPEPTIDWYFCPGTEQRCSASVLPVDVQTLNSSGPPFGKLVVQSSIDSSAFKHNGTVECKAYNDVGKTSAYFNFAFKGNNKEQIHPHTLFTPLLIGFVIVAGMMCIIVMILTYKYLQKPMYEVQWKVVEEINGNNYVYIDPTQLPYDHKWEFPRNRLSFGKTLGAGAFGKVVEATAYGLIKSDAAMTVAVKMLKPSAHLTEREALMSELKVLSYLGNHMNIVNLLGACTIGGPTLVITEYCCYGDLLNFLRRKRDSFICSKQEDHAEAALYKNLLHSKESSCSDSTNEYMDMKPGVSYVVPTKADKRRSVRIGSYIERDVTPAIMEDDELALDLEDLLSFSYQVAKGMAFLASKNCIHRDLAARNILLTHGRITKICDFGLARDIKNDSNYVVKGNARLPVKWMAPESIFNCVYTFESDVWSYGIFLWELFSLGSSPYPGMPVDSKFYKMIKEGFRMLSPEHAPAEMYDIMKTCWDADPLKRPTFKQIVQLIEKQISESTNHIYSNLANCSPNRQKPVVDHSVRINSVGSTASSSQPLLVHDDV
Outline: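 Mobility-shift read-out: after EDTA stop, fluorescent peptide substrate and product resolved electrophoretically on LabChip 3000. Reaction ran 3 h at 25° C with 400 μM ATP, Mn^2+ cofactor, 5.0 nM wtKIT, 1 μM FAM-peptide, pH 7.5 HEPES buffer; no-enzyme wells defined full inhibition.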

[4] = Kinetic solubility assay; assay type: physicochemical; details: kinetic solubility, 50 mM PB (pH 7.4), shaken 24 hours at RT
Outline: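 Concentration in the filtrate was determined by UPLC-UV or HPLC-UV with a standard curve. Before that, compound (10 mM DMSO stock) in 50 mM PB at pH 7.4 was agitated 24 h at room temperature, then PTFE-filtered with centrifugation.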

[5] = biological target: T3, wtKIT; test: HTRF biochemical assay, wtKIT (phosphorylation of a peptide substrate); details: Table 4
Outline: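 HTRF read-out of FAM-peptide (1 µM) phosphorylation after anti-phosphotyrosine antibody addition and EDTA quench. Reaction: 5.0 nM wtKIT, 400 µM ATP, 10 mM Mn2+, HEPES pH 7.5, 1% DMSO, 3 h, 25 °C; optional enzyme-compound preincubation; enzyme level set for 10-20% conversion.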

[6] = biological target: T4, BCRP (BCRP-MDCKII monolayer) (Homo sapiens, UniProt Q9UNQ0); test: MDCKII-BCRP bidirectional transport assay; assay type: in vitro ADME; details: for MDCK-BCRP: Papp A-B: apical to basolateral
T4 construct: host or cells: MDCKII (canine kidney) cells
T4 sequence (Q9UNQ0 1-655): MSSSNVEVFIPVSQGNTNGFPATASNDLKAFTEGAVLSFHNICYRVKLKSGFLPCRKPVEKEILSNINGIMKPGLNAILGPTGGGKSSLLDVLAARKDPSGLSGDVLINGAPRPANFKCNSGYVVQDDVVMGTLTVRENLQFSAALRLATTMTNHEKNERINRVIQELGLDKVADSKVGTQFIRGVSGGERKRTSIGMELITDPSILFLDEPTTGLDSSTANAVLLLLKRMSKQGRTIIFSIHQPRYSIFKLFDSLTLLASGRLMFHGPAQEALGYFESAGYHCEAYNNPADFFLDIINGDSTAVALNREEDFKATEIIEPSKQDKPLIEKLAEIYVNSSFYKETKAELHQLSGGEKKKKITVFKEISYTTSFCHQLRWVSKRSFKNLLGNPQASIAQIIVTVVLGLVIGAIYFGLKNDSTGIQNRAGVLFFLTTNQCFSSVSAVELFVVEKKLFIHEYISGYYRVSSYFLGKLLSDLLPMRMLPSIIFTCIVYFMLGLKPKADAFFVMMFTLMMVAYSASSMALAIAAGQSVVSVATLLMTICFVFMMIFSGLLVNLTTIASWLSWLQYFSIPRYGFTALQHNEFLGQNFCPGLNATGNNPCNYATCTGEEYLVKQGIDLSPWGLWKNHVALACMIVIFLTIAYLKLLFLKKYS
Outline: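 Efflux ratios were derived from Papp values, alongside recovery, with compounds quantified by LC-MS/MS. Both directions were tested in duplicate across BCRP-MDCKII monolayers used on days 12–15. Incubation ran 120 min at 37° C, 5% CO2, after a 15 min preincubation in assay buffer.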

T1 sequence (P16234 24-1089): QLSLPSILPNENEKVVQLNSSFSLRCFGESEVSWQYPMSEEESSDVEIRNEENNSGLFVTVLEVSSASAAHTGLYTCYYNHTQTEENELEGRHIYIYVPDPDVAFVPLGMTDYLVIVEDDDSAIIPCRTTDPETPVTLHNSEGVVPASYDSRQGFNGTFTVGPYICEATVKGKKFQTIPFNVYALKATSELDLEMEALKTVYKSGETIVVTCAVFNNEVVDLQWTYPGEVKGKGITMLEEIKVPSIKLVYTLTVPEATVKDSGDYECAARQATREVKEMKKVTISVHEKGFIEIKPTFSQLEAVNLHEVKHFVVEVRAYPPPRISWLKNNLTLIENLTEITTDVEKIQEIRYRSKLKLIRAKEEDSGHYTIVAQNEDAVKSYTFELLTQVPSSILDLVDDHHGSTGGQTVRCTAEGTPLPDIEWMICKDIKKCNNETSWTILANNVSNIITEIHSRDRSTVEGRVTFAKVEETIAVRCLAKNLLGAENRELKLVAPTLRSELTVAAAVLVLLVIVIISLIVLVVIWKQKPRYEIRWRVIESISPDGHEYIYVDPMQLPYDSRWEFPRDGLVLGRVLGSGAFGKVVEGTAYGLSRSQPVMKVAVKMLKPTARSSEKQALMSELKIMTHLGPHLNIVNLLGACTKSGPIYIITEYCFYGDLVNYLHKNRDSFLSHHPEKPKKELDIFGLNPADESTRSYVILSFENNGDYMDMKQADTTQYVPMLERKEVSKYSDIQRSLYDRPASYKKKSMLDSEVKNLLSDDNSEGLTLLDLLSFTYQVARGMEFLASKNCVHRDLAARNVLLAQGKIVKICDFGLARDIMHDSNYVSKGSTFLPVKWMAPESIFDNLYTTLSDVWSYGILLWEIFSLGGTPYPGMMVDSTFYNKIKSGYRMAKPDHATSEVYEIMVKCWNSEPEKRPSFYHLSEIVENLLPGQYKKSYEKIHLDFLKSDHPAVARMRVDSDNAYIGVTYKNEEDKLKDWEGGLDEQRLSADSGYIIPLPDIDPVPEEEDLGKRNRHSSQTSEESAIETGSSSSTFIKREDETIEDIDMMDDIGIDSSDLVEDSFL

| Structure (SMILES) | IC50 [1] [nM] | IC50 [2] [nM] | IC50 [3] [nM] | Solubility (μM) [4] | IC50 [5] [nM] | MDCK-BCRP: Efflux Ratio [6] | MDCK-BCRP: Papp A-B [6] |
| --- | --- | --- | --- | --- | --- | --- | --- |
| Cc1ccc(-c2noc([C@@H]3CCC(C)(C)N3)n2)cc1NC(=O)c1cnc2ccccn12 (racemic) [Compound I-232] | 50 to 500 | ≤ 50 | ≤ 50 | ** (a solubility greater than 10 μM and less than or equal to 50 μM) | 50 to 500 | – | – |
| Cc1ccc(-c2noc(C3CCC(F)C3)n2)cc1NC(=O)c1cnc2ccccn12 (racemic) [Compound I-318] | 50 to 500 | ≤ 50 | ≤ 50 | *** (a solubility greater than 2 μM and less than or equal to 10 μM) | – | 0.93 | 13.9 10^−6 cm/s |
| Cc1ccc(-c2noc(C3CCC(=O)N3C)n2)cc1NC(=O)c1cnc2ccccn12 (racemic) [Compound I-326] | 5000 to 30000 | 500 to 5000 | 50 to 500 | * (a solubility greater than 50 μM) | – | 28.3 | 1.07 10^−6 cm/s |
| Cc1ccc(-c2noc(CC3CCCOC3)n2)cc1NC(=O)c1cnc2ccccn12 (racemic) [Compound I-362] | 500 to 5000 | 50 to 500 | ≤ 50 | *** (a solubility greater than 2 μM and less than or equal to 10 μM) | – | 1.35 | 8.71 10^−6 cm/s |
| COC(=O)CS(=O)(=O)N1CC[C@H]1c1nc(-c2ccc(C)c(NC(=O)c3cnc4ccccn34)c2)no1 [Compound I-188] | 50 to 500 | 50 to 500 | ≤ 50 | *** (a solubility greater than 2 μM and less than or equal to 10 μM) | – | – | – |
| O=C(Nc1cc(-c2noc([C@H]3CC(F)(F)CN3)n2)ccc1Cl)c1cnc2ccccn12 [Compound I-192] | 500 to 5000 | 50 to 500 | ≤ 50 | **** (a solubility less than or equal to 2 μM) | – | – | – |
| Cc1ccc(-c2noc([C@H]3CCN3C3CCC3)n2)cc1NC(=O)c1cnc2ccccn12 [Compound I-193] | 50 to 500 | ≤ 50 | ≤ 50 | **** (a solubility less than or equal to 2 μM) | – | – | – |
| Cc1ccc(-c2noc([C@H]3CCN3C(C)C)n2)cc1NC(=O)c1cnc2ccccn12 [Compound I-194] | 50 to 500 | ≤ 50 | ≤ 50 | *** (a solubility greater than 2 μM and less than or equal to 10 μM) | – | – | – |
| Cc1ccc(-c2noc([C@H]3CCN3S(=O)(=O)C3CCOCC3)n2)cc1NC(=O)c1cnc2ccccn12 [Compound I-196] | 50 to 500 | ≤ 50 | ≤ 50 | ** (a solubility greater than 10 μM and less than or equal to 50 μM) | – | – | – |
| COC(=O)CS(=O)(=O)N1CCC1c1nc(-c2ccc(C)c(NC(=O)c3cnc4ccccn34)c2)no1 (stereo not drawn) [Compound I-197] | 500 to 5000 | 50 to 500 | ≤ 50 | *** (a solubility greater than 2 μM and less than or equal to 10 μM) | – | – | – |
| CCS(=O)(=O)N1CC[C@@H]1c1nc(-c2ccc(C)c(NC(=O)c3cnc4ccccn34)c2)no1 [Compound I-234] | 50 to 500 | ≤ 50 | ≤ 50 | ** (a solubility greater than 10 μM and less than or equal to 50 μM) | 50 to 500 | – | – |
| COC(=O)CS(=O)(=O)N1CC(c2nc(-c3ccc(C)c(NC(=O)c4cnc5ccccn45)c3)no2)C1 [Compound I-236] | 5000 to 30000 | 500 to 5000 | ≤ 50 | *** (a solubility greater than 2 μM and less than or equal to 10 μM) | 50 to 500 | – | – |
| Cc1ccc(-c2noc(-c3ccccn3)n2)cc1NC(=O)c1cnc2ccccn12 [Compound I-272] | 500 to 5000 | 50 to 500 | ≤ 50 | **** (a solubility less than or equal to 2 μM) | – | 3.4 | 6.58 10^−6 cm/s |
| Cc1ccc(-c2noc([C@H]3C[C@@H]3F)n2)cc1NC(=O)c1cnc2ccc(N3CCC3)cn12 [Compound I-291] | 50 to 500 | ≤ 50 | ≤ 50 | *** (a solubility greater than 2 μM and less than or equal to 10 μM) | – | – | – |
| Cc1ccc(-c2noc([C@H]3C[C@@H]3F)n2)cc1NC(=O)c1cnc2cc(Nc3ccc4c(c3)OCCO4)ccn12 [Compound I-301] | ≤ 50 | ≤ 50 | ≤ 50 | **** (a solubility less than or equal to 2 μM) | – | – | – |
| Cc1ccc(Nc2ccn3c(C(=O)Nc4cc(-c5noc([C@H]6C[C@@H]6F)n5)ccc4C)cnc3c2)cc1 [Compound I-302] | ≤ 50 | ≤ 50 | ≤ 50 | **** (a solubility less than or equal to 2 μM) | – | – | – |
| Cc1ccc(-c2noc([C@H]3C[C@@H]3F)n2)cc1NC(=O)c1cnc2cc(N3CCCCC3)ccn12 [Compound I-305] | 50 to 500 | ≤ 50 | ≤ 50 | **** (a solubility less than or equal to 2 μM) | – | – | – |
| CCOC1CC(c2nc(-c3ccc(C)c(NC(=O)c4cnc5ccccn45)c3)no2)C1 (stereo not drawn) [Compound I-309] | 500 to 5000 | 50 to 500 | ≤ 50 | *** (a solubility greater than 2 μM and less than or equal to 10 μM) | – | 1.07 | 11.3 10^−6 cm/s |
| Cc1ccc(-c2noc(C34CCC(CC3)CC4)n2)cc1NC(=O)c1cnc2ccccn12 [Compound I-311] | ≤ 50 | ≤ 50 | 50 to 500 | **** (a solubility less than or equal to 2 μM) | – | – | – |
| COC(=O)N1CC(c2nc(-c3ccc(C)c(NC(=O)c4cnn5cc(Br)ccc45)c3)no2)C1 [Compound I-312] | 500 to 5000 | ≤ 50 | ≤ 50 | **** (a solubility less than or equal to 2 μM) | – | 1.42 | 13.3 10^−6 cm/s |
| Cc1ccc(-c2noc(C3(CO)CC(F)(F)C3)n2)cc1NC(=O)c1cnc2ccccn12 [Compound I-320] | 50 to 500 | ≤ 50 | ≤ 50 | *** (a solubility greater than 2 μM and less than or equal to 10 μM) | – | 16 | 1.75 10^−6 cm/s |
| COC(=O)Cc1nc(-c2ccc(C)c(NC(=O)c3cnc4ccccn34)c2)no1 [Compound I-321] | 500 to 5000 | 50 to 500 | ≤ 50 | **** (a solubility less than or equal to 2 μM) | – | 3.4 | 4.73 10^−6 cm/s |
| Cc1ccc(-c2noc(C3CCN3S(C)(=O)=O)n2)cc1NC(=O)c1cnc2ccccn12 (stereo not drawn) [Compound I-331] | 50 to 500 | ≤ 50 | ≤ 50 | ** (a solubility greater than 10 μM and less than or equal to 50 μM) | – | – | – |

— patent US20240254119A1 (THIRD HARMONIC BIO, INC., priority 2022, published 2024)
